The molecules below were run against T1, human TLR3 (hTLR3) (Homo sapiens, UniProt O15455) (assay: Antagonist screen, hTLR3-NFκB-293 cells, NF-κB-luciferase reporter, with EC50 of poly(I:C)). Conditions: compound at 0.5, 5, 50 μg/ml; EC50 concentration of poly(I:C); 16 h; NF-κB-luciferase.
T1 construct: expressed in transfected cells
T1 sequence (O15455 24-904): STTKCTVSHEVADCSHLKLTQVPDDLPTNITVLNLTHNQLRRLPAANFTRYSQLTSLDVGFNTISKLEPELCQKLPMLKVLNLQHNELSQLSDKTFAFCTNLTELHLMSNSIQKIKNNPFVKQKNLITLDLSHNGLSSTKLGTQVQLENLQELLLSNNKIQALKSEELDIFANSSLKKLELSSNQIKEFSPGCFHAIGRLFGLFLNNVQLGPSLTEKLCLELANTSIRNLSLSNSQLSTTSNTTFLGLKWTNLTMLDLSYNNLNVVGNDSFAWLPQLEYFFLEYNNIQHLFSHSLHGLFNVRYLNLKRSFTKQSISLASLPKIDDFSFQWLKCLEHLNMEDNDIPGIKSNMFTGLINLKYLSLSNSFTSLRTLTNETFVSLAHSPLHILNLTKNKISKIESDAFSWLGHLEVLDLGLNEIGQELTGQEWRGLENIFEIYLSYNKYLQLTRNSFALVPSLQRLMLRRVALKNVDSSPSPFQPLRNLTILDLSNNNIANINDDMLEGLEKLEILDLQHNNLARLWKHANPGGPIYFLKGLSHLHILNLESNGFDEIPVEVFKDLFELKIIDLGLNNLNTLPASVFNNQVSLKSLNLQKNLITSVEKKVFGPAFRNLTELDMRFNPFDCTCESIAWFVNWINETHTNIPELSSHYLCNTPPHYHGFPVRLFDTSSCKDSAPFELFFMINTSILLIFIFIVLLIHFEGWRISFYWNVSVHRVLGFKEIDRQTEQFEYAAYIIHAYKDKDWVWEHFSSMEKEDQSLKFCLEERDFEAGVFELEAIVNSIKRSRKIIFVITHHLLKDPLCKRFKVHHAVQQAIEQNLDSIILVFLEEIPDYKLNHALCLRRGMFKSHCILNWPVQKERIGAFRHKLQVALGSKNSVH
Type: cell-based
Protocol: The method is described in greater detail as follows. The cells for each individual cell clone (hTLR3-NFκB-293, hTLR7-NFκB-293, hTLR8-NFκB-293 and hTLR9-NFκB-293) were counted and seeded one day before the stimulation at 1.5×10^4 cells per well in 96-well cell culture plates. To become adherent the cells were incubated after seeding overnight at 37° C. in 5% CO2 humidified air.
The screen for each compound was performed at the same time for all of the receptors TLR3, TLR7, TLR8 and TLR9. Up to fifteen test compounds, each assayed in duplicate at each of three different final concentrations (0.5 μg/ml, 5 μg/ml, and 50 μg/ml), were used for 16 h cell stimulation on a single multiwell culture plate. A 4× final concentration master plate was created to prepare the different test compounds before they were added to the cells.
Controls were added as duplicates individually for each cell clone on the cell culture plate. Positive controls were used as follows (final concentrations): 50 μg/ml poly(I:C) for hTLR3-NFκB-293; 8 μM resiquimod (R848) for hTLR7-NFκB-293; 30 μM R848 for hTLR8-NFκB-293; and 2.5 μM CpG-ODN 2006 for hTLR9-NFκB-293. Media alone was used as negative control. After addition of controls and small molecules, the cell clones were additionally stimulated with the EC50 concentration of the appropriate receptor-specific ligand.
The mean value of wells H2 and H5 (each with cells and EC50 concentration of the appropriate receptor-specific ligand) divided by the mean of wells H3 and H6 (each with cells alone) yielded the baseline response (i.e., fold induction of luciferase activity) to EC50 concentration of the appropriate receptor-specific ligand.
After 16 h stimulation the supernatant was removed and the cells treated with lysis buffer and stored at −80° C. before measuring.
For each screen result a graphical documentation was performed.
The baseline result (measured with addition of the EC50 concentration of the receptor-specific ligand) for each cell culture plate was measured as described above. Antagonistic effects were measured by down regulation compared to the baseline. Antagonists were scored as follows: • 13: compounds for which there was clear down regulation at 0.5 μg/ml, 5 μg/ml, and 50 μg/ml; • 12: compounds for which there was clear down regulation at 5 μg/ml and 50 μg/ml; • 11: compounds for which there was clear down regulation only at 50 μg/ml; • —: compounds for which there was no clear down regulation even at 50 μg/ml. Agonists
Results were expressed as fold induction over baseline luciferase activity measured in the absence of poly(I:C). […] Additional screening was performed in like manner using additional small molecules selected from another library or specifically prepared for this purpose. Scoring is reported as above but as applied to TLR3.
`CN(C)CC/C=C1/c2ccccc2Sc2ccc(Cl)cc21.Cl` [compound 348, Chlorprothixenehydrochloride] was tested, and the “hTLR3 (inhibitory effect, antagonist score)” value was 11 (compounds for which there was clear down regulation only at 50 μg/ml). In the case of `OCCN1CCN(CCCN2c3ccccc3Sc3ccc(Cl)cc32)CC1` [compound 125, Perphenazine], the “hTLR3 (inhibitory effect, antagonist score)” value is reported as “— (compounds for which there was no clear down regulation even at 50 μg/ml)”. In the case of `CC(=O)Oc1cc(C)c(C2(c3cc(C(C)C)c(OC(C)=O)cc3C)OC(=O)c3ccccc32)cc1C(C)C` [compound 1161], the “hTLR3 (inhibitory effect, antagonist score)” value is reported as 12 (compounds for which there was clear down regulation at 5 μg/ml and 50 μg/ml). For `COC(=O)[C@H]1[C@H]2C[C@@H]3c4[nH]c5cc(OC)ccc5c4CCN3C[C@H]2C[C@@H](OC(=O)c2cc(OC)c(OC)c(OC)c2)[C@@H]1OC` [compound 875, Reserpine], the “hTLR3 (inhibitory effect, antagonist score)” value was “— (compounds for which there was no clear down regulation even at 50 μg/ml)”. For `Cl.Cl.OCCN1CCN(CC/C=C2/c3ccccc3Sc3ccc(C(F)(F)F)cc32)CC1` [compound 340, Flupentixoldihydrochloride cis-(Z)], the “hTLR3 (inhibitory effect, antagonist score)” value was 11 (compounds for which there was clear down regulation only at 50 μg/ml). With `CCOCCOC(=O)c1cc([N+](=O)[O-])cc2c1-c1c(cc([N+](=O)[O-])cc1[N+](=O)[O-])C2=C(C#N)C#N` [compound 1241] the “hTLR3 (inhibitory effect, antagonist score)” value was 11 (compounds for which there was clear down regulation only at 50 μg/ml). With `CCCCOC(=O)c1cc([N+](=O)[O-])cc2c1-c1cc(CO)c([NH+]([O-])O)cc1C2=C(C#N)C#N` (stereo not drawn) [compound 939] the “hTLR3 (inhibitory effect, antagonist score)” value was 11 (compounds for which there was clear down regulation only at 50 μg/ml). With `Cl.Cl.Fc1ccc(C(OCCN2CCN(CCCc3ccccc3)CC2)c2ccc(F)cc2)cc1` [compound 386, GBR 12909hydrochloride] the “hTLR3 (inhibitory effect, antagonist score)” value was 11 (compounds for which there was clear down regulation only at 50 μg/ml). With `COC(=O)c1cccc(C(O)(c2ccccc2)c2ccccc2)c1S(=O)(=O)C(C)(C)C` [compound 1187] the “hTLR3 (inhibitory effect, antagonist score)” value was 12 (compounds for which there was clear down regulation at 5 μg/ml and 50 μg/ml). With `O=C1c2ccccc2C(=O)c2c1ccc1c(=O)n(-c3ccccc3)[nH]c21` [compound 1042] the “hTLR3 (inhibitory effect, antagonist score)” value was 11 (compounds for which there was clear down regulation only at 50 μg/ml). `CCCC(C(=O)OCCN(CC)CC)(c1ccccc1)c1ccccc1.Cl` [compound 778, Proadifen hydrochloride] was tested, and the “hTLR3 (inhibitory effect, antagonist score)” value was 11 (compounds for which there was clear down regulation only at 50 μg/ml). In the case of `CN(CCO)C(=O)c1cccc2c1-c1ccccc1C2=O` [compound 890], the “hTLR3 (inhibitory effect, antagonist score)” value is reported as “— (compounds for which there was no clear down regulation even at 50 μg/ml)”. `CN1Cc2c(N)cccc2C(c2ccccc2)C1.O=C(O)/C=C\C(=O)O` (stereo not drawn) [compound 108, Nomifensine maleate] was tested, and the “hTLR3 (inhibitory effect, antagonist score)” value was “— (compounds for which there was no clear down regulation even at 50 μg/ml)”. In the case of Flunarizinehydrochloride [compound 312], the “hTLR3 (inhibitory effect, antagonist score)” value is reported as 11 (compounds for which there was clear down regulation only at 50 μg/ml). `O=C1c2c(O)cccc2Cc2cccc(O)c21` [compound 43, Anthralin] was tested, and the “hTLR3 (inhibitory effect, antagonist score)” value was “— (compounds for which there was no clear down regulation even at 50 μg/ml)”. For `COC(=O)c1cccc2c1-c1ccccc1/C2=N/O` [compound 904], the “hTLR3 (inhibitory effect, antagonist score)” value was 12 (compounds for which there was clear down regulation at 5 μg/ml and 50 μg/ml). For `Nc1cccc2c1C(=O)c1cccc(N)c1C2=O` [compound 413, Anthraquinone,1,5-diamino], the “hTLR3 (inhibitory effect, antagonist score)” value was 11 (compounds for which there was clear down regulation only at 50 μg/ml). For `O=C1Nc2ccccc2Oc2ccc([N+](=O)[O-])cc21` [compound 1352], the “hTLR3 (inhibitory effect, antagonist score)” value was “— (compounds for which there was no clear down regulation even at 50 μg/ml)”. In the case of `O=c1[nH]c2ccccc2n1C1CCN(CCCC(c2ccc(F)cc2)c2ccc(F)cc2)CC1` [compound 308, Pimozide], the “hTLR3 (inhibitory effect, antagonist score)” value is reported as 12 (compounds for which there was clear down regulation at 5 μg/ml and 50 μg/ml). In the case of `CN1CCN(C(c2ccccc2)c2ccccc2)CC1.Cl` [compound 510, Cyclizine hydrochloride], the “hTLR3 (inhibitory effect, antagonist score)” value is reported as “— (compounds for which there was no clear down regulation even at 50 μg/ml)”. In the case of `COc1ccc2c(c1)N(CC(C)CN(C)C)c1ccccc1S2.O=C(O)/C=C\C(=O)O` (stereo not drawn) [compound 797, Methotrimeprazinemaleat salt], the “hTLR3 (inhibitory effect, antagonist score)” value is reported as 11 (compounds for which there was clear down regulation only at 50 μg/ml). For `Cc1cc(OC(=O)C2C3CCCCC32)c(C(C)C)cc1C1(c2cc(C(C)C)c(OC(=O)C3C4CCCCC43)cc2C)OC(=O)c2ccccc21` (stereo not drawn) [compound 974], the “hTLR3 (inhibitory effect, antagonist score)” value was 11 (compounds for which there was clear down regulation only at 50 μg/ml). In the case of `COc1ccc2[nH]c3c(c2c1)CCN=C3C` [compound 621, Methoxy-6-harmalan], the “hTLR3 (inhibitory effect, antagonist score)” value is reported as “— (compounds for which there was no clear down regulation even at 50 μg/ml)”. `c1ccc2c(c1)[nH]c1cnccc12` [compound 470, norharman] was tested, and the “hTLR3 (inhibitory effect, antagonist score)” value was 11 (compounds for which there was clear down regulation only at 50 μg/ml). With Maprotilinehydrochloride [compound 346] the “hTLR3 (inhibitory effect, antagonist score)” value was 11 (compounds for which there was clear down regulation only at 50 μg/ml). With “Prochlorperazinedimaleate [compound 399]” the “hTLR3 (inhibitory effect, antagonist score)” value was 12 (compounds for which there was clear down regulation at 5 μg/ml and 50 μg/ml). In the case of `CN(C)CCC=C1c2ccccc2CCc2ccccc21.Cl` [compound 74, Amitryptilinehydrochloride], the “hTLR3 (inhibitory effect, antagonist score)” value is reported as “— (compounds for which there was no clear down regulation even at 50 μg/ml)”. With `CN(C)CCCN1c2ccccc2Sc2ccc(Cl)cc21.Cl` [compound 64, Chlorpromazinehydrochloride] the “hTLR3 (inhibitory effect, antagonist score)” value was 11 (compounds for which there was clear down regulation only at 50 μg/ml). With `O=C(O)c1cc(C(c2ccc(O)c(C(=O)O)c2)C(Cl)(Cl)Cl)ccc1O` [compound 884] the “hTLR3 (inhibitory effect, antagonist score)” value was “— (compounds for which there was no clear down regulation even at 50 μg/ml)”. `CN1CCC2C(C1)c1ccccc1N2Cc1ccccc1` (stereo not drawn) [compound 455, Mebhydroline 1,5 naphtalenedisulfonate] was tested, and the “hTLR3 (inhibitory effect, antagonist score)” value was “— (compounds for which there was no clear down regulation even at 50 μg/ml)”. In the case of `Cc1nccc2c1[nH]c1cc(O)ccc12.Cl` [compound 612, Harmol hydrochloride monohydrate], the “hTLR3 (inhibitory effect, antagonist score)” value is reported as 11 (compounds for which there was clear down regulation only at 50 μg/ml). For `Cl.Clc1ccc(C(OCCN2CCCCC2)c2ccccc2)cc1` (stereo not drawn) [compound 793, Cloperastinehydrochloride], the “hTLR3 (inhibitory effect, antagonist score)” value was 11 (compounds for which there was clear down regulation only at 50 μg/ml). With `Cc1cccc(CN2CCN(C(c3ccccc3)c3ccc(Cl)cc3)CC2)c1.Cl.Cl` (stereo not drawn) [compound 457, Meclozinedihydrochioride] the “hTLR3 (inhibitory effect, antagonist score)” value was “— (compounds for which there was no clear down regulation even at 50 μg/ml)”.

Reference: patent US7410975B2, “Small molecule toll-like receptor (TLR) antagonists” (Coley Pharmaceutical Group, Inc., priority 2003, dated 2008)
